# Test results: article PMC8226474, “Design, Syntheses, and Bioevaluations of Some Novel N^2-Acryloylbenzohydrazides as Chemostimulants and Cytotoxic Agents” (Medicines, 2021)
# Tests used:
# HCT 116 cells = experiment: Cytotoxicity assay, HCT 116 colon cancer cells; type: cell-based, human; settings: Homo sapiens, HCT-116, 48 h, read-out: percentage inhibition of HCT 116 cells
# In short: (§1)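 Cells were exposed to compounds for 48 h unless indicated otherwise. HCT 116 cells were grown in McCoy's 5A, CRL 1790 in MEM, and MCF-7 and MDA-MB-231 in DMEM, each with 10% FBS and 1% penicillin–streptomycin. Triplicate determinations were run on three occasions.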
# MCF-7 cells = experiment: Cytotoxicity assay, MCF-7 breast cancer cells; type: cell-based, human
# In short: as §1
# MDA-MB-231 cells = experiment: Cytotoxicity assay, MDA-MB-231 breast cancer cells; type: cell-based, human; settings: Homo sapiens, MDA-MB-231, 48 h, read-out: percentage inhibition of MDA-MB-231 cells
# In short: as §1
# CRL 1790 cells = experiment: Cytotoxicity assay, non-malignant CRL 1790 colon cells; type: cell-based; settings: Homo sapiens, 48 h, Table 2, read-out: Non-Malignant CRL 1790 Cells IC50
# In short: as §1
# Ramos cells [1] = experiment: Cytotoxicity (CC50), Ramos cells; type: cell-based, human
# Description: (§2) In brief, the compounds were incubated for 24 h with the neoplasms, using DMEM and RPMI media. Three independent experiments were carried out.
# NALM-60 cells = experiment: Cytotoxicity (CC50), NALM-60 cells; type: cell-based, human
# Description: as §2
# CEM cells = experiment: Cytotoxicity (CC50), CEM cells; type: cell-based, human
# Description: as §2
# HL-60 cells = experiment: Cytotoxicity (CC50), HL-60 cells; type: cell-based, human
# Description: as §2
# JURKAT cells = experiment: Cytotoxicity (CC50), Jurkat cells; type: cell-based, human
# Description: as §2
# RAJI cells = experiment: Cytotoxicity (CC50), Raji cells; type: cell-based, human
# Description: as §2
# [2] = Cytotoxicity (CC50), non-malignant Hs27 foreskin cells; type: cell-based; settings: human, 24 h incubation
# Description: as §2
# [3] = Cytotoxicity (CC50), non-malignant MCF-10A breast cells; type: cell-based; settings: human, MCF-10A cells (non-malignant breast cells); 24 h incubation; read-out: Non-Malignant Cells CC50, MCF10A
# Description: as §2
# [4] = tested on: Ramos, NALM-60, CEM, HL-60, JURKAT, RAJI cells; experiment: Cytotoxicity (CC50), average over six leukemia/lymphoma cell lines; type: cell-based, human
# Description: as §2
# [5] = Cytotoxicity (CC50), average over non-malignant cells; type: cell-based; settings: human, Hs27 and MCF10A cells (non-malignant), average of both
# Description: as §2
# Ramos cells [6] = experiment: Mitochondrial membrane potential of Ramos cells (JC-1 dye, flow cytometry); type: cell-based, human; settings: 5 h, Figure 3
# Description: The effect of 1l on the mitochondrial membrane potential of Ramos cells was determined using the procedure laid out in [9]. In brief, the cells were treated with 1l for 5 h, stained with the JC-1 dye, and then the results were analyzed by flow cytometry.
# The MMP of Ramos cells was determined using the JC-1 dye. In this assay, JC-1 enters the energized mitochondria in healthy cells and forms aggregates to produce red fluorescence at 590 nm. However, cells undergoing apoptotic cell death have a low mitochondrial membrane potential.
smiles,measurement,setting,value
"C=CC(=O)NNC(=O)c1ccc(OC)cc1 [1l, N^2-Acryloyl-4-methoxylbenzohydrazide]",inhibition at 10 µM,HCT 116 cells; 10 µM,8.62 ± 2.79%
same,inhibition at 100 µM,HCT 116 cells; 100 µM,85.1 ± 3.28%
same,inhibition at 10 µM,"MCF-7 cells; Homo sapiens, MCF7, 10 µM, 48 h, read-out: percentage inhibition of MCF-7 cells",60.6 ± 3.29%
same,inhibition at 100 µM,"MCF-7 cells; Homo sapiens, MCF7, 100 µM, 48 h, read-out: percentage inhibition of MCF-7 cells",99.4 ± 2.34%
same,IC50,"MCF-7 cells; Homo sapiens, MCF7, Table 2, 48 h, read-out: Neoplastic Cells IC50, MCF-7",3180 ± 530 nM
same,SI (selectivity index),"MCF-7 cells; IC50 CRL 1790 / IC50 MCF-7, Table 2",>31.5
same,inhibition at 10 µM,MDA-MB-231 cells; 10 µM,-4.95 ± 3.12%
same,inhibition at 100 µM,MDA-MB-231 cells; 100 µM,47.7 ± 3.19%
same,IC50,CRL 1790 cells,> 100000 nM
same,CC50,"Ramos cells [1]; Homo sapiens, Ramos, 24 h incubation",190 ± 10 nM
same,SI Ramos,Ramos cells [1]; average CC50 of non-malignant cells / CC50 Ramos,94.2
same,CC50,"NALM-60 cells; Homo sapiens, 24 h incubation",3250 ± 990 nM
same,SI NALM-60,NALM-60 cells; average CC50 of non-malignant cells / CC50 NALM-60,5.51
same,CC50,"CEM cells; Homo sapiens, CCRF-CEM, 24 h incubation",1420 ± 250 nM
same,SI CEM,CEM cells; average CC50 of non-malignant cells / CC50 CEM,12.6
same,CC50,"HL-60 cells; Homo sapiens, HL-60, 24 h incubation",1860 ± 660 nM
same,SI HL-60,HL-60 cells; average CC50 of non-malignant cells / CC50 HL-60,9.62
same,CC50,"JURKAT cells; Homo sapiens, Jurkat, 24 h incubation",2170 ± 450 nM
same,SI JURKAT,JURKAT cells; average CC50 of non-malignant cells / CC50 JURKAT,8.25
same,CC50,"RAJI cells; Homo sapiens, Raji, 24 h incubation",2930 ± 430 nM
same,SI RAJI,RAJI cells; average CC50 of non-malignant cells / CC50 RAJI,6.11
same,CC50 at 24 h,[2],17700 ± 620 nM
same,CC50 at 24 h,[3],18100 ± 840 nM
same,"Avg SI, neoplastic cells",[4],22.7
same,CC50,"[4]; Homo sapiens, average over six neoplastic cell lines",1970 nM
same,CC50 at 24 h,[5],17900 nM
same,effect on mitochondrial membrane potential of Ramos cells,"Ramos cells [6]; CC50 concentration of 1l, vs control",significantly depolarized
same,effect on mitochondrial membrane potential of Ramos cells,Ramos cells [6]; doubled (2 x CC50) concentration of 1l,approximately twofold increase in the mitochondrial depolarization
